Data taken from patent US20240277873A1, “ULTRABRIGHT […] PROBES FOR DETECTION AND IMAGING” (Nanyang Technological University, priority 2021, published 2024).

How the values were obtained:
NE [1] = target: T1, NE (Homo sapiens, UniProt P08246); assay: Chemiluminescence and fluorescence changes of BTPDNe and MPDNe in the presence of NE (response, selectivity, LOD, half-life); type: biochemical
T1 sequence (P08246 30-267): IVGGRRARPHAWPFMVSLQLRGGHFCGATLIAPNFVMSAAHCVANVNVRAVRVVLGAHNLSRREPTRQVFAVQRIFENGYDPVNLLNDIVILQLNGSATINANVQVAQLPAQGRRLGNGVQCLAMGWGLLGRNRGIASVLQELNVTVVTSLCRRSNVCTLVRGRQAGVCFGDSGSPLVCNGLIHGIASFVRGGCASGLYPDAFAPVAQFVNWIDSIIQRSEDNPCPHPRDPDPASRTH
Description: Chemiluminescence and fluorescence changes of BTPDNe (20 μM) were determined in the presence of NE (0.1 U/ml), other different enzymes (˜0.1 U/mL, APN, ALP, Cas-3, cat B, GGT, β-gal and NTR) in 50 mM Tris, 1 M NaCl, 0.05% (w/v) Brij-35, pH 7.5 at 37° C. after 30 min incubation.
Chemiluminescence and fluorescence changes of BTPDNe and MPDNe (20 μM) in the presence of NE (0.1 U/mL), or other different enzymes (˜0.1 U/mL, APN, ALP, Cas-3, Cat B, GGT, β-gal, NTR, CatG and PR3) were tested after 30 min incubation in 50 mM Tris, 1 M NaCl, 0.05% (w/v) Brij-35, pH 7.5 at 37° C.
To determine the LOD for NE enzyme detection, the chemiluminescence of BTPDNe was recorded in 50 mM Tris, 1 M NaCl, 0.05% (w/v) Brij-35, pH 7.5 at 37° C. with different concentrations of NE (0, 0.05, 0.1, 0.5, 1, and 2 U/ml) for 30 min incubation. Then, initial reaction velocity was calculated.

neutrophils [2] = assay: Cytotoxicity assay (MTS), neutrophils; type: cell-based; conditions: 2.5 to 50 μM, 24 h
Description: (§1) Neutrophils and normal mouse embryonic fibroblasts (3T3) cells were seeded in 96-well plates which have 5×10^4 cells per well and incubated for 24 h. Then, BTPDNe at different concentrations (2.5, 5, 10, 20 and 50 μM) was added into the neutrophils and 3T3 cells, respectively. After 24 h incubation, MTS assay was added to the cell for 4 h incubation. After incubation, the absorbance of MTS at 490 nm was recorded by using a microplate reader (SpectraMax M, Switzerland). The assays were performed in five sets for each concentration.

IMQ-induced psoriasis = assay: Real-time chemiluminescence imaging in IMQ-induced psoriasis model; type: in vivo, BALB/c mice; conditions: 3 min post-topical administration of BTPDNe, microneedle
Description: The control group was treated with Vaseline (50 mg/d) and the IMQ-treatment group was applied with IMQ cream (60 mg/d, 5%) once a day. […] Probe BTPDNe (10 uM, 1 mM in DMSO) was thoroughly mixed with Aquaphor (˜10 mg) and applied for psoriasis imaging, followed by poly(methyl methacrylate) microneedle treatment for 1 min. Then, chemiluminescent signals at different time-points (0, 3, 5, 10, 15, 30, 45 and 60 min) after probe-treatment were recorded using IVIS system bioluminescence with acquiring time of 180 s. Until the third day, all the mice were sacrificed to collect tissue and blood for further experiments (hematoxylin and eosin (H&E) staining and flow cytometry analysis) as described in Example 11.

neutrophils [3] = assay: In vitro cell chemiluminescent imaging; type: cell-based
Description: 3T3 cells and immune cells (neutrophils, DC cells, T-cells and macrophage) (10^4 cells) were seeded into confocal cell culture dishes (dia. 15 mm) and incubated for 24 h. […] After incubation, the medium was removed, and the cells were washed thrice. Chemiluminescence imaging of the cells were recorded on LX71 inverted microscope (Olympus), which was equipped with infinity 3-1 (Lumenera) CCD camera. During imaging, the excitation light was blocked and the images were recorded under an open filter, with an acquisition time of 60 s.

LPS-treated mice = assay: Real-time chemiluminescence imaging in LPS-induced peritonitis model; type: in vivo
Description: The model was induced by intraperitoneal injection of LPS (15 ng) in 100 μL of PBS or PBS only as a control. Probe BTPDNe (40 μM·Kg^−1) or MPDNe (40 μM·Kg^−1) in PBS (10 mM, pH 7.4) containing 10% DMSO was intraperitoneally injected in mice. Then, chemiluminescent signals at different post-injection timepoints (0, 5, 10, 20, 45 and 60 min) were recorded using IVIS system bioluminescence with acquiring time of 120 s. After 3 h, the peritoneum was flushed with PBS (5 mL)+EDTA (5 mM). After erythrocyte lysis, neutrophils from C57Bl/6 mice were stained with a PE-labeled CD. After treatment with LPS for 3 h, CD11c antibody and an APC-labeled Ly6G antibody were added to the neutrophils, and the neutrophils were analyzed for double-positive events using flow cytometry (BD Biosciences). Data analysis was performed using Flowjo V10. Neutrophils were gated as CD45+CD11b+Ly6G+cells after the exclusion of doublets.
Fluorescence and chemiluminescence in vivo imaging of the probes were measured by an IVIS spectrum imaging system. Chemiluminescence imaging of the cells was recorded on LX71 inverted microscope. Tissue slices were cut by Leica, Germany slicer and imaged by a Nikon ECLIPSE 80i microscope. The images of tissue sections and cells were recorded with a LSM800 confocal laser scanning microscope. The white light was provided by 150 W LED High Bay Thermo Light.

3T3 cells = assay: Cytotoxicity assay (MTS), 3T3 cells; type: cell-based, mouse; conditions: 2.5 to 50 μM, 24 h
Description: as §1

NE [4] = target: T1, NE; assay: Enzyme kinetics study of NE with BTPDNe (Michaelis-Menten, HPLC); type: biochemical; conditions: NE 0.1 U/mL, BTPDNe 2-80 μM
Description: To carry out the kinetic assay, various concentrations of BTPDNe (2, 5, 10, 20, 40 and 80 μM) were incubated with NE (0.1 U/mL) at 37° C. for 10 min in 50 mM Tris, 1 M NaCl, 0.05% (w/v) Brij-35, and at pH=7.5. After incubation, quantification analyses were determined by HPLC. The initial reaction velocity was calculated, plotted against the concentration of BTPDNe, and fitted to a Michaelis-Menten curve. Finally, the kinetic parameters were calculated by Michaelis Menten equation: […]
where v is initial velocity, and [S] is substrate concentration.

## COC1(c2ccc(-c3nc4ccccc4s3)c(OCc3ccc(NC(=O)[C@@H](NC(=O)[C@@H]4CCCN4C(=O)[C@H](C)NC(=O)[C@H](C)NC(C)=O)C(C)C)cc3)c2)OOC12C1CC3CC(C1)CC2C3 (some centres unmarked) [BTPDNe]
NE [1]; APN, ALP, Cas-3, cat B, GGT, furin, β-gal, NTR, PR3, CatG (~0.1 U/mL)
  selectivity towards NE over other enzymes: high selectivity
NE [1]; at 515 nm, probe 20 μM, NE 0.1 U/mL, 30 min
  fluorescence increase after incubation with NE: 20.1 fold
NE [1]; probe 20 μM, NE 0.1 U/mL, 50 mM Tris, 1 M NaCl, 0.05% Brij-35, pH 7.5, 37° C., 30 min, BTPDNe at 515 nm, MPDNe at 550 nm
  chemiluminescence enhancement after incubation with NE: ~42.3 fold
Neutrophils [2]
  cytotoxicity (cell viability, MTS): no cytotoxicity
IMQ-induced psoriasis; day 1 post IMQ
  chemiluminescent signal from dorsal skins vs control group, day 1: 3.1 fold
IMQ-induced psoriasis; day 2 post IMQ
  chemiluminescent signal from dorsal skins vs control group, day 2: 3.7 fold
IMQ-induced psoriasis; day 3 post IMQ
  chemiluminescent signal from dorsal skins vs control group, day 3: 2.9 fold
Neutrophils [3]; neutrophil, DC, macrophage, CTL, 3T3, 20 μM
  differentiation of neutrophils from other immune cells: differentiated neutrophils from other immune cells
Neutrophils [3]; probe 10 μM, incubation 30 min
  activated chemiluminescence signal in neutrophils, 30 min: 63.0 pixels
Neutrophils [3]; probe 10 μM, incubation 1 h
  activated chemiluminescence signal in neutrophils, 1 h: 42.7 pixels
LPS-treated mice; 20 min post-treatment of probes
  chemiluminescent signal relative to MPDNe-injected mice: ~2.15 fold
LPS-treated mice; LPS-treated mice, 60 min post injection
  chemiluminescent signals after 60 min: could still be observed
LPS-treated mice; LPS-treated mice, 3 h post LPS, i.p. probe 40 μM·kg^−1
  maximum chemiluminescent signal enhancement in peritoneum relative to negative control group: ~9.2 fold
3T3 cells
  cytotoxicity (cell viability, MTS): no cytotoxicity
NE [4]
  enzyme kinetic coefficient: 22000 M⁻¹ s⁻¹
NE [4]; 37° C., 10 min, pH 7.5
  Kcat: 1.15 s⁻¹
  Km: 52.2 µM
